| Compound | melting point |
| --- | --- |
| CCCc1cn(C)c2c(=O)[nH]c(-c3cc(S(=O)(=O)N4CCN(CCCOC(C)=O)CC4)ccc3OCC)nc12 [Example 6, 2-{5-[4-(3-Acetoxypropyl)piperazin-1-ylsulfonyl]-2-ethoxyphenyl}-5-methyl-7-n-propyl-3,5-dihydro-4H-pyrrolo[3,2-d]pyrimidin-4-one] | 157 to 158.5 °C |
| CCCOc1ccc(S(=O)(=O)N2CCN(CCOC(C)=O)CC2)cc1-c1nc2c(CCC)cn(CC)c2c(=O)[nH]1 [Example 7, 2-{5-[4-(2-Acetoxyethyl)piperazin-1-ylsulfonyl]-2-n-propoxyphenyl}-5-ethyl-7-n-propyl-3,5-dihydro-4H-pyrrolo[3,2-d]pyrimidin-4-one] | 139 to 140 °C |
| CCCOc1ccc(S(=O)(=O)N2CCN(CCOC(=O)CCC)CC2)cc1-c1nc2c(CCC)cn(CC)c2c(=O)[nH]1 [Example 12, 2-{5-[4-(2-Butyryloxyethyl)piperazin-1-ylsulfonyl]-2-n-propoxyphenyl}-5-ethyl-7-n-propyl-3,5-dihydro-4H-pyrrolo[3,2-d]pyrimidin-4-one] | 71.5 to 73 °C |
| CCCOc1ccc(S(=O)(=O)N2CCN(CCOC(C)=O)CC2)cc1-c1nc2c(CCCF)cn(CC)c2c(=O)[nH]1 [Example 19, 2-{5-[4-(2-Acetoxyethyl)piperazin-1-ylsulfonyl]-2-n-propoxyphenyl}-5-ethyl-7-(3-fluoropropyl)-3,5-dihydro-4H-pyrrolo[3,2-d]pyrimidin-4-one] | 134 to 135 °C |

The remaining lines, values ahead:

| melting point | Compound |
| --- | --- |
| 126.5 to 127.5 °C | CCCOc1ccc(S(=O)(=O)N2CCN(CCOC(=O)CC)CC2)cc1-c1nc2c(CCC)cn(CC)c2c(=O)[nH]1 [Example 10, 5-Ethyl-2-{5-[4-(2-propionyloxyethyl)piperazin-1-ylsulfonyl]-2-n-propoxyphenyl}-7-n-propyl-3,5-dihydro-4H-pyrrolo[3,2-d]pyrimidin-4-one] |
| 88 to 89 °C | CCCOc1ccc(S(=O)(=O)N2CCN(CCOC(=O)C(C)C)CC2)cc1-c1nc2c(CCC)cn(CC)c2c(=O)[nH]1 [Example 14, 5-Ethyl-2-{5-[4-(2-isobutyryloxyethyl)piperazin-1-ylsulfonyl]-2-n-propoxyphenyl}-7-n-propyl-3,5-dihydro-4H-pyrrolo[3,2-d]pyrimidin-4-one] |
| 78 to 79 °C | CCCOc1ccc(S(=O)(=O)N2CCN(CCOC(=O)c3ccccc3)CC2)cc1-c1nc2c(CCC)cn(CC)c2c(=O)[nH]1 [Example 16, 2-{5-[4-(2-Benzoyloxyethyl)piperazin-1-ylsulfonyl]-2-n-propoxyphenyl}-5-ethyl-7-n-propyl-3,5-dihydro-4H-pyrrolo[3,2-d]pyrimidin-4-one] |
| 135 to 136 °C | CCCOc1ccc(S(=O)(=O)N2CCN(CCOC(=O)OCC)CC2)cc1-c1nc2c(CCC)cn(CC)c2c(=O)[nH]1 [Example 17, 2-{5-[4-(2-Ethoxycarbonyloxyethyl)piperazin-1-ylsulfonyl]-2-n-propoxyphenyl}-5-ethyl-7-n-propyl-3,5-dihydro-4H-pyrrolo[3,2-d]pyrimidin-4-one] |
